Data on 4 compounds can be found in patent US4778802A, “Heterocyclic compounds” (John Wyeth & Brother, Ltd., priority 1985, dated 1988).

Like-named read-outs stand apart in the source and are kept apart here.

Experiment [1] concerns pCA-induced 5-HT syndrome. The experiment in a line: Inhibition of p-chloroamphetamine (pCA)-induced stereotypy in rats, p.o. To be noted: for inhibition of syndrome at 50 mg/kg: 50 mg/kg p.o.; for ED50: Rattus norvegicus, po; for antagonism of pCA-induced stereotypy (in words): 5 dose levels. Type of experiment: in vivo, male Sprague-Dawley rats. On the procedure:
Representative compounds of this invention were tested for their ability to inhibit pCA induced syndrome in rats by the standard procedure described below:
(§1) Inhibition of p-chloroamphetamine (pCA)-induced stereotypy
Vehicle or drug (5 dose levels) were administered p.o. to six groups of 6-8 male Sprague-Dawley rats (300-400 g) followed, 90 minutes later, by pCA (10 mg/kg i.p.). The animals were then placed in individual observation chambers and, 30 minutes after pCA administration, the intensity of the pCA-induced 5-HT syndrome was assessed according to the following scoring system:
head-weaving 0, 1, 2 or 3 according to
fore-paw treading severity
(§2) tremor 0 (absent) or 1 (present)
Therefore, the maximum score for each animal was 10.
(§3) The inhibition of pCA induced stereotypy is calculated for each dose level as follows: [formula] where
C=control group total score at 30 minutes post pCA.
T=group total score of treated group at 30 minutes post pCA.
For each dose a % effect is calculated.
The results obtained from the tests using 5 different dose levels of the drug allow the ED50 value (i.e. the dose required to produce 50% inhibition of pCA induced stereotypy) to be calculated.
The test was carried out using the free bases except for compound C which was tested in the form if its maleate salt and the result corrected for amount of active material.

In another experiment the test system is pCA syndrome. In words: Related duration test on pCA syndrome (with modified scoring). Type of experiment: in vivo. To be noted: 15 mg/kg.
Experiment [2] relates to 5-hydroxy-L-tryptophan induced behavioural syndrome. In words: Potentiation of 5-hydroxytryptophan (5-HTP)-induced behaviour in rats. It is filed as in vivo, male Sprague-Dawley rats. To be noted: Rattus norvegicus, po. On the procedure:
The compounds B and C were also tested for their ability to potentiate 5-hydroxy-L-tryptophan induced behavioural syndrome in rats. The test procedure is described below (updated from that described in UK No. 2073179B).
Potentiation of 5-hydroxytryptophan (5-HTP)-induced behaviour
Groups of 10 male Sprague-Dawley rats (310-360 g) were dosed p.o. with vehicle or drugs. Ninety minutes later 5-HTP (50 mg/kg s.c.) was administered and the animals placed in individual observation chambers (peripheral decarboxylation was prevented by 25 mg/kg i.p. carbidopa administered 60 minutes before 5-HTP). Head shakes were counted over the period 30-45 minutes after 5-HTP and the intensity of the 5-HT syndrome was scored immediately afterwards using the system described for the pCA procedure above. Percentage potentiation of syndrome was calculated as follows: […]
0, 1, 2 or 3 according to severity
as §2
Percentage potentiation was calculated from the following: [formula]

Experiment [3] has as its system 5-HT uptake into rat brain synaptosomes. In words: Inhibition of 5-HT uptake into rat brain synaptosomes. Type of experiment: biochemical, male Sprague Dawley rats. To be noted: for IC50: 37°, 4 minutes; for Selectivity Ratio (5-HT uptake relative to NA uptake): from IC50 NA and IC50 5-HT. The method, then: (§4) In vitro tests have shown that compounds of formula I also have a marked degree of selectivity in inhibiting uptake of 5-HT into rat brain synaptosomes relative to uptake of ^3 H noradrenaline. The test procedure involved obtaining synaptosomal preparations from male Sprague Dawley rats according to the method of Grey and Whittaker* as modified by Wood & Wyllie.** Aliquots of the synaptosomal preparation were then incubated with tritrated noradrenaline (NA) or 5-HT at a temperature of 37° for 4 minutes. The active synaptosomal accumulation of labelled substrate was measured by filtration and scintillation counting. The effect at a range of concentrations of test compound enabled IC50 values and selectivity ratios to be calculated.

Experiment [4] relates to 3H noradrenaline (NA) uptake into rat brain synaptosomes. The experiment in a line: Inhibition of 3H noradrenaline (NA) uptake into rat brain synaptosomes. It is filed as biochemical, male Sprague Dawley rats. To be noted: 37°, 4 minutes. On the procedure: as §4
For another experiment, the system named is pCA-induced stereotypy. The experiment in a line: Duration of action: inhibition of pCA-induced stereotypy at various times after dosing. To be noted: 6 mg/kg p.o. Type of experiment: in vivo, male Sprague-Dawley rats. On the procedure: as §1
The animals were then placed in individual observation chambers and, 30 minutes after pCA administration, the intensity of the pCA-induced 5-HT syndrome was assessed according to the following scoring system:
as §3

Where [5] appears, read: rats, p.o., 90 min before pCA 10 mg/kg i.p., scored 30 min after pCA, free bases except C (maleate, corrected for active material), read-out: ED50 (dose required to produce 50% inhibition of pCA induced stereotypy).
Where [6] appears, read: rats, p.o., 90 min before 5-HTP 50 mg/kg s.c., carbidopa 25 mg/kg i.p., value of C corrected for amount of active ingredient, read-out: ED50 (potentiation of 5-HTP-induced behavioural syndrome).

`O=C(NC(=O)c1ccc2ncccc2c1)NC1CCN(Cc2ccc3ccccc3c2)CC1` [A, N-[[[1-(2-naphthalenylmethyl)-4-piperidinyl]amino]-carbonyl]-6-quinolinecarboxamide]: in experiment [1] (rats), the “inhibition of syndrome at 50 mg/kg” value is 99%. In experiment [1] (setting [5]), the ED50 is 2.7 mg/kg. In experiment [1] (rats, p.o.), the “antagonism of pCA-induced stereotypy (in words)” value (“antagonism” below) is “antagonised pCA-induced stereotypy in a dose-dependent manner”.

In the case of `O=C(NC(=O)c1ccccc1)NC1CCN(Cc2ccc3ccccc3c2)CC1` [panuramine, 1-benzoyl-3-[1-(naphth-2-ylmethyl)piperid-4-yl]urea, reference compound], the “inhibition of syndrome at 50 mg/kg” value in experiment [1] (rats) was “ca. 78%”. Also, the ED50 came to 16.2 mg/kg in experiment [1] (same test, monohydrochloride corrected for amount of active ingredient, read-out: ED50 (inhibition of pCA induced stereotypy), panuramine) and 27.4 mg/kg in experiment [2] (same test, corrected for amount of base, read-out: ED50 (potentiation of 5-HTP-induced behavioural syndrome), panuramine HCl salt). Besides, the “duration of action (in words)” value in the experiment on pCA syndrome is reported as “much shorter duration of action”. Moreover, in the experiment on pCA syndrome (16 hours), the “inhibition after 16 hours” value was found to be 12.2%. Also, the “inhibition after two hours” value in the experiment on pCA syndrome (two hours) came to 65.1%. In addition, the values for the IC50 in experiment [3] and in experiment [4] were 63 nM and 8.5 µM, respectively. The “Selectivity Ratio (5-HT uptake relative to NA uptake)” value in experiment [3] was determined as 135.

Regarding `O=C(NC(=O)c1ccc2ncccc2c1)NC1CCN(Cc2ccc3cc(F)ccc3c2)CC1` [C, N-[[[1-(6-fluoro-2-naphthalenylmethyl)-4-piperidinyl]-amino]-carbonyl]-6-quinolinecarboxamide], in experiment [1] (rats), the “inhibition of syndrome at 50 mg/kg” value turned out to be 99%. The ED50 stood at 2.1 mg/kg in experiment [1] (setting [5]) and 2.4 mg/kg in experiment [2] (setting [6]). For the same compound, in experiment [1] (rats, p.o.), the “antagonism” value is recorded as “antagonised pCA-induced stereotypy in a dose-dependent manner”. Also, the “% Inhibition of pCA induced stereotypy, time 2” value in the experiment with pCA-induced stereotypy (time 2 after administration of 5-HT inhibitor (time unit not given)) is “ca. 79%”. The “% Inhibition of pCA induced stereotypy, time 6” value in the experiment with pCA-induced stereotypy (time 6 after administration of 5-HT inhibitor (time unit not given)) is on record as 82.8%. The “% Inhibition of pCA induced stereotypy, time 12” value in the experiment on pCA-induced stereotypy (time 12 after administration of 5-HT inhibitor (time unit not given)) is given as 56.9%. Further, the “% Inhibition of pCA induced stereotypy, time 16” value with pCA-induced stereotypy (time 16 after administration of 5-HT inhibitor (time unit not given)) came out at 57.6%. Moreover, the IC50 in experiment [3] is 82 nM; in experiment [4] it was 37 µM. The “Selectivity Ratio (5-HT uptake relative to NA uptake)” value in experiment [3] is 450.

For the compound `O=C(NC(=O)c1ccc2ncccc2c1)NC1CCN(Cc2ccc3ncccc3c2)CC1` [B, N-[[[1-(quinol-6-ylmethyl)-4-piperidinyl]amino]-carbonyl]-6-quinolinecarboxamide], the “inhibition of syndrome at 50 mg/kg” value in experiment [1] (rats) is on record as 99%. Further, the figures for the ED50 in experiment [1] (setting [5]) and in experiment [2] (setting [6]) were 6.5 mg/kg and 7.3 mg/kg, respectively. The “antagonism” value in experiment [1] (rats, p.o.) was “antagonised pCA-induced stereotypy in a dose-dependent manner”. Besides, the IC50 in experiment [3] worked out at 43 nM; in experiment [4], 8.9 µM. Further, in experiment [3], the “Selectivity Ratio (5-HT uptake relative to NA uptake)” value is recorded as 207.

What is called ED50 is the dose that gives a 50% effect, or the effect in half of the subjects. The term IC50 denotes the concentration that gives 50% inhibition.
